Reference: patent US20020132853A1, “Capsaicin receptor ligands” (priority 2000, published 2002)
Read-outs that look alike come from different tables or passages of the source.

How the values were obtained:
[1] = Sedative effect noted in CFA arthritis model protocol; format: in vivo, rats; conditions: oral dose of 5mg/kg
Description: Male SD rats are injected with […] of CFA (0.1 mg heat killed and dried M. tuberculosis/ml) in the hind paw ([…] on the plantar surface of the paw) essentially as described by Bertorelli R, Corradini L, Rafiq K, Tupper J, Calo G, Ongini E., Br J Pharmacol. 1999 128(6):1252-8 and by Stein C, Millan M J, Herz A. Pharmacol Biochem Behav. 1988 31(2):455-51.
On day 7, animals are treated orally with a compound of the invention, morphine or vehicle (2% vitamin E-TPGS) 1 hour prior to testing.

[2] = target: T1, human capsaicin receptor (Homo sapiens, UniProt Q8NER1); test: Capsaicin receptor binding assay ([3H]RTX competition)
T1 construct: expression consrtuct encoding the full length human capsaicin receptor; expressed in transfected cells
Source text: Capsaicin Receptor Binding Assay
The following assay is a standard assay of capsaicin receptor binding that may be used to determine the binding affinity of compounds for the capsaicin (VR1) receptor.
Materials. [^3H]Resiniferatoxin (RTX; 37 Ci/mmol) was synthesized by and obtained from the Chemical Synthesis and Analysis Laboratory, National Cancer Institute-Frederick Cancer Research and Development Center, Frederick, MD. [^3H] […] Nonradioactive RTX may be purchased from Alexis Corp. (San Diego, Calif.) and capsazepine from RBI (Natick, Mass).
Cell Culture. […] These transfected cells are selected for two weeks in media containing G418 (400 ug/ml) and then maintained as a pool of stably transfected cells.
pUHG102 VR1 expression plasmids are transfected into Chinese Hamster Ovary (CHO) cells containing the pTet Off Regulator plasmid (Clontech). In these cells, expression of the pUHG plasmid is repressed in the presence of tetracycline but is induced upon removal of the antibiotic. Stable clones are isolated in culture medium containing puromycin (10 ug/ml) and maintained in medium supplemented with tetracycline (1 ug/ml) Cells utilized for assays are grown in culture medium without antibiotic for 48-72 hours prior to use. For radioligand binding experiments, cells are seeded in T175 cell culture flasks in media without antibiotics and grown to approximately 90% confluency. The flasks are then washed with PBS and harvested in PBS containing 5 mM EDTA. The cells are pelleted by gentle centrifugation and stored at −80° C. until assayed.
Previously frozen cells are disrupted with the aid of a tissue homogenizer in ice-cold HEPES homogenization buffer (5mM KCl 5, 5.8mM NaCl, 0.75mM CaCl2, 2mM MgCl2, 320 mM sucrose, and 10 mM HEPES pH 7.4). Tissue homogenates are first centrifuged for 10 min at 1000×g (4° C.) to remove the nuclear fraction and debris and then the supernatant from the first centrifugation is further centrifuged for 30 min at 35,000×g (4° C.) to obtain a partially purified membrane fraction. Membranes are resuspended in the HEPES homogenization buffer prior to being assayed. An aliquot of this membrane homogenate is used to determine protein concentration via the Bradford method (BIO-RAD Protein Assay Ki t, #500-0001, BIO-RAD, Hercules, Calif.).
Binding assay mixtures were set up on ice and contained [^3H]RTX (specific activity 2200 mCi/ml), 2 ul non-radioactive ligands test compound, 0.25 mg/ml bovine serum albumin (Cohn fraction V), and 5×10^4−1×10^5 VR1-transfected cells. The final volume was adjusted to 500 ul (competition binding assays) or 1,000 ul (saturation binding assays) with the ice-cold HEPES homogenization buffer solution (pH 7.4) described above. Non-specific binding was defined as that occurring in the presence of 1 uM non-radioactive RTX. For saturation binding, [^3H]RTX was added in the concentration range of 7 - 1,000 pM, using 1 to 2 dilutions. Typically 11 concentration points are collected per saturation binding curve.
Competition binding assays were performed in the presence of 60 pM [^3H]RTX and various concentrations of competing ligands. The binding reactions are initiated by transferring the assay mixtures into a 37° C. water bath and are terminated following a 60 min incubation period by cooling the tubes on ice. Membrane-bound RTX is separated from free, as well as any alpha1-acid glycoprotein-bound RTX, by filtration onto WALLAC glass fiber filters (PERKIN-ELMER, Gaithersburg, Md.) which are pre-soaked with 1.0% PEI (polyethyleneimine) for 2 hours prior to use.

T1 sequence (Q8NER1 whole entry): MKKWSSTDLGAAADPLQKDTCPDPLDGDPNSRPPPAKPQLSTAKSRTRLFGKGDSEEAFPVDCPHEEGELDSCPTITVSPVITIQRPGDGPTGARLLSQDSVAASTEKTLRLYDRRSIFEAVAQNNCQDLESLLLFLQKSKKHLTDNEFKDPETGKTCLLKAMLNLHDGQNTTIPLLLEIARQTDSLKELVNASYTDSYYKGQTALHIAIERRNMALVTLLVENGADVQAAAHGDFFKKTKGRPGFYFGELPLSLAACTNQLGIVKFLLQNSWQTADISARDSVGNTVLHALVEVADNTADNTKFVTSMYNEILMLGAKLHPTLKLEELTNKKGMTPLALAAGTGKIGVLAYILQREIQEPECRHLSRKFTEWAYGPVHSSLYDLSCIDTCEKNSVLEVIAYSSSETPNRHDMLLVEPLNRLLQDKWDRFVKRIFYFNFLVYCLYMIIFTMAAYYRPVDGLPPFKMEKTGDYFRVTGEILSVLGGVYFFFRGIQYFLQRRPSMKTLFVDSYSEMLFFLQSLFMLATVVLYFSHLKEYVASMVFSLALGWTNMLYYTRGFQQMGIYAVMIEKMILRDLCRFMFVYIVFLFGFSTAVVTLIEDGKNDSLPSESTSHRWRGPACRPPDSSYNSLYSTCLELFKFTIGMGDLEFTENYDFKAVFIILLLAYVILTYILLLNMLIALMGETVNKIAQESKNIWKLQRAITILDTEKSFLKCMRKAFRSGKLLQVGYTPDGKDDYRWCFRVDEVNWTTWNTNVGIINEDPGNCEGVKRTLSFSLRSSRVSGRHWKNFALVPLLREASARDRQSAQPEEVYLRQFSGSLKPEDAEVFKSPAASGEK

Compound | Ki ([2]; Table II, read-out: Activity) | other results
CC(C)c1ccc(NC(=S)N2CCN(c3ncccc3Cl)C[C@H]2C)cc1 (stereo in doubt) [Example 7, 4-(3-Chloro-pyridin-2-yl)-2-methyl-piperazine-1-carbothioic acid (4-isopropyl-phenyl)-amide] |  | melting point: 49 to 51 °C
CN1CC[C@]23c4c5ccc(O)c4O[C@H]2[C@@H](O)C=C[C@H]3[C@H]1C5 [morphine] |  | sedative effects [1]: has sedative effects
CC(C)c1ccc(NC(=O)N2CCN(c3ncc(Cl)cc3Cl)CC2)cc1 [Compound 9, 4-(3,5-Dichloro-2-pyridinyl)-N-[4-(isopropyl)phenyl]-1-piperazinecarboxamide] | < 4 µM | 
CCCCc1ccc(NC(=O)N2CCN(c3ncccc3C(F)(F)F)CC2)cc1 [Compound 3, 4-(3-Trifluoromethyl-2-pyridinyl)-N-[4-(n-butyl)phenyl]-1-piperazinecarboxamide] | < 4 µM | 
Cc1cccnc1C(=O)C=Cc1ccc(C(F)(F)F)cc1 [Compound 10, 1-(3-Methyl-2-pyridinyl)-3-(4-trifluoromethylphenyl)-prop-2-en-1-one] | < 4 µM | 
CCCCc1ccc(NC(=O)N2CCN(c3ncccc3[N+](=O)[O-])CC2)cc1 [Compound 2, 4-(3-Nitro-2-pyridinyl)-N-[4-(n-butyl)phenyl]-1-piperazinecarboxamide] | < 4 µM | 
CC(C)c1ccc(C=CC(=O)c2ncccc2C(F)(F)F)cc1 [Compound 11, 1-(3-Trifluoromethyl-2-pyridinyl)-3-(4-isopropylphenyl)-prop-2-en-1-one] | < 4 µM | 
COc1cc(CNC(=O)N2CCN(c3ncccc3C(F)(F)F)CC2)ccc1O [Compound 1, 4-(3-Trifluoromethyl-2-pyridinyl)-N-(3-methoxy-4-hydroxyphenylmethyl)-1-piperazinecarboxamide] |  | Ki ([2]; read-out: Capsaicin rececptor Ki): 0.366 µM
CC(C)c1ccc(NC(=O)N2CCN(c3ncccc3Cl)CC2)cc1 [Compound 8, 4-(3-Chloro-2-pyridinyl)-N-[4-(isopropyl)phenyl]-1-piperazinecarboxamide] | < 4 µM | 
4-(3-Chloro-2-pyridinyl)-N-[4-(isopropyl)phenyl]-1-piperazinecarboxamide [Compound 14] | < 4 µM | 
CC(C)c1ccc(NC(=O)N2CCN(c3ncccc3C#N)CC2)cc1 [Compound 12, 4-(3-Cyano-2-pyridinyl)-N-[4-(isopropyl)phenyl]-1-piperazinecarboxamide] |  | Ki [2]: < 4 µM
Cc1cccnc1N1CCN(C(=O)Nc2ccc(C(C)C)cc2)CC1 [Compound 4, 4-(3-Methyl-2-pyridinyl)-N-[4-(isopropyl)phenyl]-1-Piperazinecarboxamide] | < 4 µM | 
CC(C)c1ccc(NC(=O)N2CCN(c3ncc(C(F)(F)F)cc3Cl)CC2)cc1 [Compound 7, 4-(3-Chloro-5-trifluoromethyl-2-pyridinyl)-N-[4-(isopropyl)phenyl]-1-piperazinecarboxamide] | < 4 µM | 
